A short description of one series: in vivo. As to conditions: male, Sprague-Dawley, rat.
Series [1] addresses T1, hERG cardiac potassium channel (Homo sapiens, UniProt Q12809).
T1 construct: host or cells: CHO-K1 cells stably transfected with HERG cDNA
Nature of the series: in vitro. It counts as cell-based. As to conditions: pH 7.4. Here is the method: In Vitro Voltage Clamp Assay of Inhibition of Potassium Ion Current in Whole Cells Expressing the hERG Cardiac Potassium Channel
CHO-K^1 cells stably transfected with HERG cDNA were obtained from Gail Robertson at the University of Wisconsin. Cells were held in cryogenic storage until needed. Cells were expanded and passaged in Dulbecco's Modified Eagles Medium/F12 supplemented with 10% fetal bovine serum and 200 μg/mL geneticin. Cells were seeded onto poly-D-lysine (100 μg/mL) coated glass coverslips, in 35 mm^2 dishes (containing 2 mL medium) at a density that enabled isolated cells to be selected for whole cell voltage-clamp studies. The dishes were maintained in a humidified, 5% CO2 environment at 37° C.
Extracellular solution was prepared at least every 7 days and stored at 4° C. when not in use. […]
The coverslips on which the cells were seeded were transferred to a recording chamber and perfused continuously. […] Peak current amplitudes during the repolarization phase were determined using pClamp software. […]
Peak current amplitudes during the repolarization phase were determined using pCLAMP software. […] The normalized current means and standard errors for each condition were calculated and plotted versus the time course of the experiment. […]

The structures appear in SMILES notation. Some results are limits rather than exact numbers.

T1 sequence (Q12809 whole entry): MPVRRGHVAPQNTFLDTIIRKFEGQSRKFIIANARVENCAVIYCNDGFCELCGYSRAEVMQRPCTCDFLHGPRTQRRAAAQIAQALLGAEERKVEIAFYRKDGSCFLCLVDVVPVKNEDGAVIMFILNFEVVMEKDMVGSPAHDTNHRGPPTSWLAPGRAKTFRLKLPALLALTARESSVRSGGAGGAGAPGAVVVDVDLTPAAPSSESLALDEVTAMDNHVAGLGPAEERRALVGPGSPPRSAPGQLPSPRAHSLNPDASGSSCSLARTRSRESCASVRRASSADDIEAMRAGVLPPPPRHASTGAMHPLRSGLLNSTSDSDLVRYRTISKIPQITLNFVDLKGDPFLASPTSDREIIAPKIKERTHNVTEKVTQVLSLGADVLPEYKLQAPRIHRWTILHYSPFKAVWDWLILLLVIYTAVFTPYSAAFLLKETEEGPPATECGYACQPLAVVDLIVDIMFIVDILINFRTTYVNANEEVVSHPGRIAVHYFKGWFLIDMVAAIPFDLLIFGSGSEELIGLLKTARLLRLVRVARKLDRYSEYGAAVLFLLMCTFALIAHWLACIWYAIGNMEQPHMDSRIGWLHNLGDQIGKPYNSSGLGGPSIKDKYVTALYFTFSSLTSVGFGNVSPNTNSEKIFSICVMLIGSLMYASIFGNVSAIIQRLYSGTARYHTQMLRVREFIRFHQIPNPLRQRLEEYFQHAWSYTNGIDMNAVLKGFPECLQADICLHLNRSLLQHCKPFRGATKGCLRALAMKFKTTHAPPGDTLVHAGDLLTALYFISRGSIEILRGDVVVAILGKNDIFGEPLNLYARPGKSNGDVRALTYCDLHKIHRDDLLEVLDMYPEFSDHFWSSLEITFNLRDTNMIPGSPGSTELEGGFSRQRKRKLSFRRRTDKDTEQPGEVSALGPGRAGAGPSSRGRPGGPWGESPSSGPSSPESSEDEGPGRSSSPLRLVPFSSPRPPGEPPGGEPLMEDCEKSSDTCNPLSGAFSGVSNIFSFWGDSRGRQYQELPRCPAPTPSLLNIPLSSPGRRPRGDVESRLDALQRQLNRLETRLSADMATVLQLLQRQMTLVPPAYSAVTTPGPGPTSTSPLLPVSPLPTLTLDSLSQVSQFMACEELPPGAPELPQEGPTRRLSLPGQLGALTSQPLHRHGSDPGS
Method for in vivo: Pharmacokinetic Study in the Rat
Male Sprague-Dawley rats (CD strain, Charles River Laboratories, Wilmington, Mass.) were dosed with test compounds via intravenous administration (IV) at a dose of 2.5 mg/kg or by oral gavage (PO) at a dose of 5 mg/kg. The dosing volume was 1 mL/kg for IV and 2 mL/kg for PO administration. Serial blood samples were collected from animals pre-dose, and at 2 (IV only), 5, 15, and 30 min, and at 1, 2, 4, 8, and 24 hours post-dose.
Standard pharmacokinetic parameters were assessed by non-compartmental analysis (Model 201 for IV and Model 200 for PO) using WinNonlin (Version 4.0.1, Pharsight, Mountain View, Calif.). The maximum in the curve of test compound concentration in blood plasma vs. time is denoted Cmax. The area under the concentration vs. time curve from the time of dosing to the last measurable concentration (AUC(0-t)) was calculated by the linear trapezoidal rule. Oral bioavailability (F(%)), i.e. the dose-normalized ratio of AUC(0-t) for PO administration to AUC(0-t) for IV administration, was calculated as: F(%)=AUCPO/AUCIV×DoseIV/DosePO×100%

In general, bioavailability refers to dose-corrected exposure relative to a reference, in per cent. High values mean good availability, low ones poor availability. What is called AUC(0-t) is the area under the concentration-time curve up to a stated or last time point. What is called Cmax is the maximum level reached in the sampled fluid or tissue. For orientation: inhibition means the change of the read-out against control, counted positive when it falls. A high value points to strong suppression. `CC(C)n1c(=O)c(C(=O)NC2CC3CCC(C2)N3CCCS(=O)(=O)N2CCN(C)CC2)cc2ccccc21` [Example 17, 1-isopropyl-2-oxo-1,2-dihydroquinoline-3-carboxylic acid {(1S,3R,5R)-8-[3-(4-methylpiperazine-1-sulfonyl)propyl]-8-azabicyclo[3.2.1]oct-3-yl}amide]: the bioavailability in “in vivo” was about 20%. In addition, in “in vivo” (po, 5 mg/kg), the exposure AUC(0-t) came out at 450 ng·h/mL and the highest level (Cmax) was 60 ng/mL. Moreover, the inhibition at 5 min, 3 µM in series [1] is under 15%.
